Data as given in patent publication US6743576B1, “Database system for predictive cellular bioinformatics” (Cytokinetics, Inc., priority 1999, dated 2004).

What was measured:
Assay type in all cases: cell-based
HeLa cells [1] = assay: Automated Hoechst image analysis of HeLa cells treated with 6 known compounds; conditions: 10 ug/mL, 24 hours, 10x objective, FIG. 11
Excerpt: In a third experiment, the purpose was to determine whether the automated analysis methods developed in the first experiment can detect differences in Hoechst morphology in the presence of 6 known compounds at one concentration and exposure time in one cell line. In this experiment, HeLa cells were separately treated with 6 compounds with known mechanism of action. The quantitative methods described in the first experiment were applied to the Hoechst images.
Approximately 5,000 HeLa cells per well were plated in a Costar black-walled 96 well tissue culture treated plate and left to recover in the incubator for 24 hours. After this time, 10 ug/mL of cytochalasin D (CD), Taxol, hydroxyurea, vinblastine, nocodazole, and staurosporine was added to different wells at a 1:100 addition in DMSO. The cells were incubated in the presence of drug for 24 more hours. After 24 hours, the cells were removed and fixed as in the first experiment. Then, 9 images per well were collected of the Hoechst staining using a 10× objective.
The low magnification images taken of Hoechst were run through the automated image analysis method described in the first experiment. Plots of the average intensity and area were made of each compound. […] The scatter plots of each compound are visually distinct. […] Furthermore, the number of cells per well was very different (data not shown).

MDCK cells = assay: Effects of Taxol on MDCK cells, Hoechst morphologies manually counted; conditions: 4.5 hours, 10 μM-1pM, FIG. 10
Protocol: In a second experiment, the effects of Taxol on MDCK cells and the different types of morphological effects were observed. A plurality of MDCK cells grown in 96 well plates were treated with Taxol for 4.5 hours at different concentrations (10 μM−1pM). They were then fixed, labeled with Hoechst, and imaged.
This experiment used a labeling protocol comprising: MEOH fix at −20°, Wash in PBS, Block in PBS/BSA/Serum/Triton-X 100, Incubate with 5 μg/ml Hoechst 10 minutes, and wash.
Cells were inspected for different morphologies and manually counted at each different drug concentration in one well. […] The next step is to test the automated Hoechst analysis of the first experiment with multiple drugs.

HeLa cells [2] = assay: High magnification Hoechst and phalloidin images of HeLa cells in the presence of drugs; conditions: 10 ug/mL, 24 hours, 40x objective, vs DMSO control, FIG. 12
Protocol: A fourth experiment was performed to obtain high magnification images of two markers in the presence of drugs. In this experiment, HeLa cells were treated with 80 generic compounds with known mechanism of action. The quantitative methods described in the first experiment were applied to the Hoechst images.
Approximately 5,000 HeLa cells per well were plated in a Costar black walled 96 well tissue culture-treated plate and left to recover in the incubator for 24 hours. After this time, 10 ug/mL of each compound from the Killer Plate from Microsource Discovery Systems (Gaylordsville, Conn.) was added to different wells at a 1:100 addition in DMSO. The cells were incubated in the presence of drug for 24 more hours. After 24 hours, the cells were removed and fixed as in the first experiment. In addition to being labeled with Hoechst 33342 (against chromatin), cells were also labeled with 1 unit of rhodamine-conjugated phalloidin (against actin) for 30 minutes.
The 96 well plate was imaged twice. Once, 9 images per well were collected of the Hoechst staining using a 10× objective. After this, one image per well of both the phalloidin and Hoechst staining was collected using a 40× objective.
The resulting high magnification images were analyzed qualitatively and distinct pattern differences were detected in both the Hoechst and phalloidin images. […] The top row is the Hoechst staining, and the bottom row is the phalloidin staining from the same well. The columns show the images from wells treated with just DMSO (control), cytochalasin D, and Colchicine. Notice that the morphology of each marker is different in the presence of each drug.

SMILES | cell (Hoechst object) size/area compared to control (HeLa cells [1]) | actin cytoskeleton morphology in the phalloidin image (HeLa cells [2]) | further results
NC(=O)NO [Hydroxyurea, hydroxyurea] | larger | – | brightness (average Hoechst intensity) compared to control (HeLa cells [1]): brighter
CC(=O)O[C@H]1C(=O)[C@@]2(C)[C@H]([C@H](OC(=O)c3ccccc3)[C@]3(O)C[C@H](OC(=O)[C@H](O)[C@@H](NC(=O)c4ccccc4)c4ccccc4)C(C)=C1C3(C)C)[C@]1(OC(C)=O)CO[C@@H]1C[C@@H]2O [Taxol, paclitaxel] | – | – | number of normal mitotic cells as a function of drug concentration (MDCK cells): fewer number of normal mitotic cells were detected; proportion of cells undergoing apoptosis as a function of drug concentration (MDCK cells): larger proportion of cells underwent apoptosis
COc1cc2c(c(OC)c1OC)-c1ccc(OC)c(=O)cc1[C@@H](NC(C)=O)CC2 [colchicine] | – | there is an effect on the actin cytoskeleton | –
C=C1[C@@H](C)[C@H]2[C@H](Cc3ccccc3)NC(=O)[C@]23[C@H](OC(C)=O)/C=C/[C@@](C)(O)C(=O)[C@@H](C)C/C=C/[C@H]3[C@@H]1O [cytochalasin D] | smaller than control | expected effect in the phalloidin image | morphology of the chromatin in the Hoechst image (HeLa cells [2]): there is an effect in the morphology of the chromatin
